According to patent US20230241196A1, “GONORRHEA SUBUNIT VACCINE” (priority 2020, published 2023):
≈ marks a conversion by molar mass, not a printed value. Marks after values point to notes of the source that are not given here.

B1: rMetQ: untagged recombinant N. gonorrhoeae FA1090 MetQ lacking the lipoprotein signal peptide; sequence in FIG. 8 (SEQ ID NO: 4) (protein, listed as Neisseria gonorrhoeae)
chain: GAMEKDSAPAASAAAPSADNGAAKKEIVFGTTVGDFGDMVKEQIQAELEKKGYTVKLVEFTDYVRPNLALAEGELDINVFQHKPYLDDFKKEHNLDITEAFQVPTAPLGLYPGKLKSLEEVKDGSTVSAPNDPSNFARALVMLNELGWIKLKDGINPLTASKADIAENLKNIKIVELEAAQLPRSRADVDFAVVNGNYAISSGMKLTEALFQEPSFAYVNWSAVKTADKDSQWLKDVTEAYNSDAFKAYAHKRFEGYKYPAAWNEGAAKKLAAA

How the values were obtained:
WT FA1090 = assay: Etest antibiotic susceptibility, WT strain; type: cell-based, Neisseria gonorrhoeae; conditions: ~22 h, MIC repeated at least twice of three, unit assumed
Procedure: The henotypes associated with deletion of metQ were explored. […] It was first examined whether complete elimination of MetQ affects cell envelope homeostasis by exposing bacteria to seven antibiotics with different mechanisms of action using Etest assays.
(§1) Briefly, non-piliated colonies of each strain were suspended in GCBL to a turbidity equivalent to that of a 0.5 McFarland standard and spread on 150 mm tissue culture dishes filled with 50 mL GCB to a thickness of 4 mm. Etest strips were placed on the agar surface and plates were cultured for ~22 h, at which point the MICs were determined. Sensitivity assessments were performed three times, and MIC values that repeated at least twice are reported.

[1] = system: isogenic knockout ΔmetQ (FA1090); assay: Etest antibiotic susceptibility, ΔmetQ knockout; type: cell-based, Neisseria gonorrhoeae; conditions: ~22 h, MIC repeated at least twice of three, unit assumed
Source text: (§2) Prokaryotic lipoproteins play versatile functions ranging from cell envelope stability to nutrient acquisition, substrate binding for ABC transporter systems, modulation of the host immune system, signal transduction, and virulence (Kovacs-Simon et al.Infect Immun 79, 548-561 (2011); Hayashi and Wu, PLoS pathogens 14, e1007081 (2018)). […] The henotypes associated with deletion of metQ were explored. A null mutant in ngo2139 ΔmetQ) and its complemented mutant ΔmetQ/Plac::metQ in Ng FA1090 were constructed (Zielke et al., Mol Cell Proteomics 15, 2338-2355 (2016)). It was first examined whether complete elimination of MetQ affects cell envelope homeostasis by exposing bacteria to seven antibiotics with different mechanisms of action using Etest assays.
as §1, with “Etest antimicrobial sensitivity assessments: The susceptibility of WT FA1090, isogenic knockout ΔmetQ, and complementation strain ΔmetQ/Plac: :metQ to seven antimicrobial compounds was assessed by Etests as previously (Zielke et al., PLoS pathogens 14, e1007081 (2018)), according to manufacturer’s instructions. Briefly,” for “Briefly,”

[2] = system: complementation strain ΔmetQ/Plac::metQ (FA1090); assay: Etest antibiotic susceptibility, complementation strain; type: cell-based, Neisseria gonorrhoeae; conditions: ~22 h, MIC repeated at least twice of three
Source text: as §2
as §1, with “Etest antimicrobial sensitivity assessments: The susceptibility of WT FA1090, isogenic knockout ΔmetQ, and complementation strain ΔmetQ/Plac: :metQ to seven antimicrobial compounds was assessed by Etests as previously (Zielke et al., PLoS pathogens 14, e1007081 (2018)), according to manufacturer’s instructions. Briefly,” for “Briefly,”

rMetQ = assay: Pilot immunogenicity: immunoblot of rMetQ with serum of immunized mice; type: in vivo, Neisseria gonorrhoeae; conditions: BALB/c mice, groups of 5; subcutaneous prime, three intranasal boosts
Procedure: First, the immunogenicity of rMetQ was tested by immunizing groups of 5 BALB/c mice with rMetQ, rMetQ-CpG, CpG, or PBS using a subcutaneous prime immunization, followed by a regimen of three intranasal boost doses. A robust, single protein band corresponding to the molecular weight of rMetQ (~30 kDa) was detected in immunoblots with serum derived from mice immunized with rMetQ alone. […] Based on these encouraging results, large-scale immunization/challenge experiments were performed. […] Vaginal washes were collected after the second boost, and antigen-specific antibody titers were assessed in serum collected 14 days after the third boost. […] Bacterial clearance was assessed by enumerating Ng CFUs present in vaginal washes on days 1, 3, 5, and 7 post-infection (FIG. 3C). […]
Densitometry analysis: The expression of MetQ during WT FA1090 infection in female BALB/c mice and intensities of protein bands detected in serum specificity studies were determined by densitometry using FIJI software (Schindelin et al., Nature methods 9, 676-682 (2012)). The amount of MetQ on day 1 post-infection was arbitrarily set to 1 and the protein abundance on days 3 and 5 is expressed relative to the MetQ cellular pool detected on day 1.

Row | Molecule | MIC (Etest) (WT FA1090) | MIC (Etest) [1] | MIC (Etest) [2] | MIC (Etest) ([2]; unit assumed) | Immunoblot intensity of rMetQ band probed with serum (rMetQ)
1 | CC[C@H]1OC(=O)[C@H](C)[C@@H](O[C@H]2C[C@@](C)(OC)[C@@H](O)[C@H](C)O2)[C@H](C)[C@@H](O[C@@H]2O[C@H](C)C[C@H](N(C)C)[C@H]2O)[C@](C)(O)C[C@@H](C)CN(C)[C@H](C)[C@@H](O)[C@]1(C)O [Azithromycin] | 0.032 mg/L (≈ 0.0427 µM) | 0.032 mg/L (≈ 0.0427 µM) | 0.5^b |  | 
2 | CC1(C)S[C@@H]2[C@H](NC(=O)Cc3ccccc3)C(=O)N2[C@H]1C(=O)O [Benzylpenicillin] | 0.064 mg/L (≈ 0.191 µM) | 0.064 mg/L (≈ 0.191 µM) |  | 0.064 mg/L (≈ 0.191 µM) | 
3 | CO/N=C(\C(=O)N[C@@H]1C(=O)N2C(C(=O)O)=C(COC(C)=O)CS[C@H]12)c1csc(N)n1 [Cefotaxime] | 0.004 mg/L (≈ 0.00878 µM) | 0.004 mg/L (≈ 0.00878 µM) |  | 0.008 mg/L (≈ 0.0176 µM) | 
4 | CN[C@H](CC(C)C)C(=O)N[C@H]1C(=O)N[C@@H](CC(N)=O)C(=O)N[C@H]2C(=O)N[C@H]3C(=O)N[C@H](C(=O)N[C@H](C(=O)O)c4cc(O)cc(O)c4-c4cc3ccc4O)[C@H](O)c3ccc(c(Cl)c3)Oc3cc2cc(c3O[C@@H]2O[C@H](CO)[C@@H](O)[C@H](O)[C@H]2O[C@H]2C[C@](C)(N)[C@H](O)[C@H](C)O2)Oc2ccc(cc2Cl)[C@H]1O [Vancomycin] | 8 mg/L (≈ 5.52 µM) | 8 mg/L (≈ 5.52 µM) |  | 8 mg/L (≈ 5.52 µM) | 
5 | Polymyxin B | 64 mg/L | 64 mg/L |  | 64 mg/L | 
6 | B1 |  |  |  |  | 44,405 relative intensity units
